Experimental data published in patent US20240270821A1, “GIP/GLP1/GCG TRI-RECEPTOR AGONISTS AND USES THEREOF” (priority 2023, published 2024).
Like-named read-outs stand apart in the source and are kept apart here. Starred links: 1 amine or outer side, 2 acyl side, 3 side chain; linkers in the order of their positions; H or OH if unused. Non-standard residues stand in square brackets, D forms with d. Groups on a side chain read outwards from the residue. No end group written: not given here. *: point of attachment. C18 diacid = O=C(O)CCCCCCCCCCCCCCCCC(=O)*; αMePhe(2-F) = C[C@](N)(Cc1ccccc1F)C(=O)O; γGlu = O=C(O)[C@H](CCC(=O)[*:2])N[*:1]; αMe4Pal = C[C@](N)(Cc1ccncc1)C(=O)O; αMeY = C[C@](N)(Cc1ccc(O)cc1)C(=O)O; 4Pal = N[C@@H](Cc1ccncc1)C(=O)O; αMeL = CC(C)C[C@](C)(N)C(=O)O; Orn = NCCC[C@H](N)C(=O)O; Aib = CC(C)(N)C(=O)O

Columns and labels:
Type in all cases: cell-based
[1] = target: hGcgR (Homo sapiens, UniProt P47871); assay: Functional cAMP activation in the presence of 0.1% casein (no HSA); details: read-out: Relative cAMP EC50, hGcgR;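 further: intracellular cAMP rise after 30 min at 37 °C, read by HTRF against a cAMP standard curve, scaled from buffer only (0%) to maximal control ligand response (100%)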
[2] = target: T1, hGLP-1R (Homo sapiens, UniProt P43220); assay: as above; details: read-out: Relative cAMP EC50, hGLP-1R;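 further: intracellular cAMP rise after 30 min at 37 °C read by HTRF, normalized between buffer only (0%) and maximal control ligand (100%), four-parameter variable-slope fit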
[3] = target: T1, hGLP-1R; assay: Functional cAMP activity in the presence of 1% HSA; details: read-out: cAMP Rel EC50, hGLP-1R
[4] = target: T2, hGIPR (Homo sapiens, UniProt P48546); assay: Functional cAMP activation in the presence of 0.1% casein (no HSA); details: read-out: Relative cAMP EC50, hGIPR;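 further: intracellular cAMP rise after 30 min at 37 °C read by HTRF against a standard curve, scaled between buffer alone (0%) and top control ligand concentration (100%), four-parameter fit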
T2 sequence (P48546 22-466): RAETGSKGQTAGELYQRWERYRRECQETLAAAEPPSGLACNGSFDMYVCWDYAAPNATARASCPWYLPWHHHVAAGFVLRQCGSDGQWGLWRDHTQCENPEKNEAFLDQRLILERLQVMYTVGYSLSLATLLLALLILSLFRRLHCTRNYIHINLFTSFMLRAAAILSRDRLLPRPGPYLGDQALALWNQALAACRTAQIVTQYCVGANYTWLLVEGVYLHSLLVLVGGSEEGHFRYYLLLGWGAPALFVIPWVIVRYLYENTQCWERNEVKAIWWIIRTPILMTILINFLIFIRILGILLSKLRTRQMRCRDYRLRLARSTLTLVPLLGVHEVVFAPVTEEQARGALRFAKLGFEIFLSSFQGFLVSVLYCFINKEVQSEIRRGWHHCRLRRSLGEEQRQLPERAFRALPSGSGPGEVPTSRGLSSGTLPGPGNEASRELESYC

[5] = target: human GcgR (Homo sapiens, UniProt P47871); assay: Functional cAMP activity in the presence of 1% HSA; details: read-out: cAMP Rel EC50, hGcgR
[6] = target: T2, hGIPR; assay: Functional cAMP activity in the presence of 1% HSA; details: read-out: cAMP Rel EC50, hGIPR
[7] = in the presence of 0.1% casein (no HSA), geometric mean

Chain of human GcgR (P47871 26-477): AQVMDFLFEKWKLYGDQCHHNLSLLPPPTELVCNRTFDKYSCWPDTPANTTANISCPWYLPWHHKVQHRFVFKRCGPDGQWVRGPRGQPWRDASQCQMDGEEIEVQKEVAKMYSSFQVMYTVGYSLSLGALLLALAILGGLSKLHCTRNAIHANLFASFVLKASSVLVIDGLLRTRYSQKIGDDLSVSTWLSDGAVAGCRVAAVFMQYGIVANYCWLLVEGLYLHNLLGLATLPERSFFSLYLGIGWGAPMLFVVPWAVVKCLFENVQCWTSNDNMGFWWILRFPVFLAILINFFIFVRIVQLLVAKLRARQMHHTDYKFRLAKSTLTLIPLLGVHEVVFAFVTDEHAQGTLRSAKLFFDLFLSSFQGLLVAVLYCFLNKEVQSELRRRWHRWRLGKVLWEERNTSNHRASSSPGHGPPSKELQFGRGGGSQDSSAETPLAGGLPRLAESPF
Chain of hGcgR (P47871 26-477): as above
T1 sequence (P43220 24-463): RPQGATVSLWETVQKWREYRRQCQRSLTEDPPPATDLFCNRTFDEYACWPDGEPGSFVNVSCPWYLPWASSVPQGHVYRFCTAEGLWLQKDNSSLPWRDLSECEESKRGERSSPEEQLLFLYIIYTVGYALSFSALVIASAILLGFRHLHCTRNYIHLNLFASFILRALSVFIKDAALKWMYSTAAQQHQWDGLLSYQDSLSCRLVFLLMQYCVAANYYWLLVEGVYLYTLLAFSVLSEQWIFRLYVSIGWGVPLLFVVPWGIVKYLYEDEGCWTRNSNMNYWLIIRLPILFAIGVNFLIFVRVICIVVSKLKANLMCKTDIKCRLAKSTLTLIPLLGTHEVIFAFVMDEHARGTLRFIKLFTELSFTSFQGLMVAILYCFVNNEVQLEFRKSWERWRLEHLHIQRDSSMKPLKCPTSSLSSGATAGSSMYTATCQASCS

Molecule | EC50 [1, 7] [nM] | EC50 [2, 7] [nM] | EC50 [3] [nM] | EC50 [4, 7] [nM] | EC50 [5] [nM] | EC50 ([3]; HEK-293 clonal cells expressing hGLP-1R, in the presence of 1% HSA, geometric mean of relative EC50) [nM] | EC50 ([5]; HEK-293 clonal cells expressing hGcgR, in the presence of 1% HSA, geometric mean of relative EC50) [nM] | EC50 [1] [nM] | EC50 [2] [nM] | EC50 [4] [nM] | EC50 [6] [nM]
CC[C@H](C)[C@H](NC(=O)[C@H](Cc1ccccc1)NC(=O)[C@H](C)NC(=O)C(C)(C)NC(=O)[C@H](CCC(N)=O)NC(=O)[C@H](C)NC(=O)[C@H](CCCCNC(=O)COCCOCCNC(=O)CC[C@H](NC(=O)CCCCCCCCCCCCCCCCC(=O)O)C(=O)O)NC(=O)[C@H](CCCCN)NC(=O)[C@H](CC(=O)O)NC(=O)[C@H](CC(C)C)NC(=O)[C@](C)(CC(C)C)NC(=O)[C@H](CCCN)NC(=O)[C@H](CO)NC(=O)[C@H](Cc1ccccc1)NC(=O)[C@H](CC(=O)O)NC(=O)[C@H](CO)NC(=O)[C@@H](NC(=O)[C@H](Cc1ccccc1)NC(=O)[C@@H](NC(=O)CNC(=O)[C@H](CCC(N)=O)NC(=O)C(C)(C)NC(=O)[C@@H](N)Cc1ccc(O)cc1)[C@@H](C)O)[C@@H](C)O)C(=O)N[C@@H](CCC(=O)O)C(=O)N[C@@H](Cc1ccc(O)cc1)C(=O)N[C@@H](CC(C)C)C(=O)N[C@@H](CC(C)C)C(=O)N[C@@H](CCC(=O)O)C(=O)NC(C)(C)C(=O)NCC(=O)N[C@@H](CCC(=O)O)C(=O)N[C@@H](CO)C(=O)N[C@@H](CO)C(=O)NCC(=O)N[C@@H](C)C(=O)N1CCC[C@H]1C(=O)N1CCC[C@H]1C(=O)N1CCC[C@H]1C(=O)N[C@@H](CO)C(=O)NCC(=O)N[C@@H](CCC(=O)O)C(N)=O [Example 246] | 2.38 | 3.91 | 845 | 0.106 | 639 | – | – | – | – | – | –
CC[C@H](C)[C@H](NC(=O)[C@H](Cc1ccccc1)NC(=O)[C@H](C)NC(=O)C(C)(C)NC(=O)[C@H](CCC(N)=O)NC(=O)[C@H](C)NC(=O)[C@H](CCCCNC(=O)COCCOCCNC(=O)CC[C@H](NC(=O)CCCCCCCCCCCCCCCCC(=O)O)C(=O)O)NC(=O)[C@H](CCCCN)NC(=O)[C@H](CC(=O)O)NC(=O)[C@H](CC(C)C)NC(=O)[C@](C)(CC(C)C)NC(=O)[C@H](CCCN)NC(=O)[C@H](CO)NC(=O)[C@H](Cc1ccccc1)NC(=O)[C@H](CC(=O)O)NC(=O)[C@H](CO)NC(=O)[C@@H](NC(=O)[C@H](Cc1ccccc1)NC(=O)[C@@H](NC(=O)CNC(=O)[C@H](CCC(N)=O)NC(=O)C(C)(C)NC(=O)[C@@H](N)Cc1ccc(O)cc1)[C@@H](C)O)[C@@H](C)O)C(=O)N[C@@H](CCC(=O)O)C(=O)N[C@@H](Cc1c[nH]c2ccccc12)C(=O)N[C@@H](CC(C)C)C(=O)N[C@@H](CC(C)C)C(=O)N[C@@H](CCC(=O)O)C(=O)NCC(=O)NCC(=O)N1CCC[C@H]1C(=O)N[C@@H](CO)C(=O)N[C@@H](CO)C(=O)NCC(=O)N[C@@H](C)C(=O)N1CCC[C@H]1C(=O)N1CCC[C@H]1C(=O)N1CCC[C@H]1C(=O)N[C@@H](Cc1ccncc1)C(=O)NCC(=O)N[C@@H](CO)C(N)=O [Example 251] | 6.98 | 2.64 | 301 | 0.153 | 1500 | – | – | – | – | – | –
CC[C@H](C)[C@H](NC(=O)[C@H](Cc1ccccc1)NC(=O)[C@H](C)NC(=O)C(C)(C)NC(=O)[C@H](C)NC(=O)[C@H](C)NC(=O)[C@H](CCCCNC(=O)COCCOCCNC(=O)CC[C@H](NC(=O)CCCCCCCCCCCCCCCCC(=O)O)C(=O)O)NC(=O)[C@H](CCCCN)NC(=O)[C@H](CC(=O)O)NC(=O)[C@H](CC(C)C)NC(=O)[C@](C)(CC(C)C)NC(=O)[C@@H](NC(=O)[C@H](CO)NC(=O)[C@H](Cc1ccc(O)cc1)NC(=O)[C@H](CC(=O)O)NC(=O)[C@H](CO)NC(=O)[C@@H](NC(=O)[C@](C)(Cc1ccccc1F)NC(=O)[C@@H](NC(=O)CNC(=O)[C@H](CCC(N)=O)NC(=O)C(C)(C)NC(=O)[C@@H](N)Cc1c[nH]cn1)[C@@H](C)O)[C@@H](C)O)[C@@H](C)CC)C(=O)N[C@@H](CCC(=O)O)C(=O)N[C@@H](Cc1ccc(O)cc1)C(=O)N[C@@H](CC(C)C)C(=O)N[C@H](C(=O)N[C@@H](CCC(=O)O)C(=O)N[C@H](C(=O)NCC(=O)N1CCC[C@H]1C(=O)N[C@@H](CO)C(=O)N[C@@H](CO)C(=O)NCC(=O)N[C@@H](CCC(=O)O)C(=O)N1CCC[C@H]1C(=O)N1CCC[C@H]1C(=O)N1CCC[C@H]1C(=O)N[C@@H](CO)C(=O)N[C@@H](CCC(=O)O)C(=O)NCC(N)=O)[C@@H](C)O)[C@@H](C)CC [Example 291] | 1.88 | 0.22 | – | 0.26 | – | 24.5 | 311 | – | – | – | –
CC[C@H](C)[C@H](NC(=O)[C@H](Cc1ccccc1)NC(=O)[C@H](CCCN)NC(=O)C(C)(C)NC(=O)[C@H](CCC(N)=O)NC(=O)[C@H](C)NC(=O)[C@H](CCCCNC(=O)COCCOCCNC(=O)CC[C@H](NC(=O)CCCCCCCCCCCCCCCCCCC(=O)O)C(=O)O)NC(=O)[C@H](CCCN)NC(=O)[C@H](CC(=O)O)NC(=O)[C@H](CC(C)C)NC(=O)[C@](C)(CC(C)C)NC(=O)[C@@H](NC(=O)[C@H](CO)NC(=O)[C@H](Cc1ccncc1)NC(=O)[C@H](CC(=O)O)NC(=O)[C@H](CO)NC(=O)[C@@H](NC(=O)[C@](C)(Cc1ccccc1F)NC(=O)[C@@H](NC(=O)CNC(=O)[C@H](CCC(N)=O)NC(=O)C(C)(C)NC(=O)[C@@H](N)Cc1ccc(O)cc1)[C@@H](C)O)[C@@H](C)O)[C@@H](C)CC)C(=O)N[C@H](CCC(=O)O)C(=O)N[C@@](C)(Cc1ccc(O)cc1)C(=O)N[C@@H](CC(C)C)C(=O)N[C@@H](CC(C)C)C(=O)N[C@@H](CCC(=O)O)C(=O)NCC(=O)NCC(=O)N1CCC[C@H]1C(=O)N[C@@H](CO)C(=O)N[C@@H](CO)C(=O)NCC(=O)N[C@@H](CCC(=O)O)C(=O)N1CCC[C@H]1C(=O)N1CCC[C@H]1C(=O)N1CCC[C@H]1C(=O)N[C@@H](CO)C(N)=O [Example 365] | 4.24 | 0.265 | 75.2 | 0.0336 | 1490 | – | – | – | – | – | –
CC[C@H](C)[C@H](NC(=O)[C@H](Cc1ccccc1)NC(=O)[C@H](C)NC(=O)C(C)(C)NC(=O)[C@H](CCC(N)=O)NC(=O)[C@H](C)NC(=O)[C@H](CCCCNC(=O)CC[C@H](NC(=O)CC[C@H](NC(=O)CCCCCCCCCCCCCCCCC(=O)O)C(=O)O)C(=O)O)NC(=O)[C@H](CCCCN)NC(=O)[C@H](CC(=O)O)NC(=O)[C@H](CC(C)C)NC(=O)[C@H](CC(C)C)NC(=O)[C@@H](NC(=O)[C@H](CO)NC(=O)[C@H](Cc1ccc(O)cc1)NC(=O)[C@H](CC(=O)O)NC(=O)[C@H](CO)NC(=O)[C@@H](NC(=O)[C@](C)(Cc1ccccc1F)NC(=O)[C@@H](NC(=O)CNC(=O)[C@H](CCC(N)=O)NC(=O)C(C)(C)NC(=O)[C@@H](N)Cc1ccc(O)cc1)[C@@H](C)O)[C@@H](C)O)[C@@H](C)CC)C(=O)N[C@@H](CCC(=O)O)C(=O)N[C@@H](Cc1ccc(O)cc1)C(=O)N[C@@H](CC(C)C)C(=O)N[C@@H](CCC(=O)O)C(=O)N[C@@H](CCC(=O)O)C(=O)NCC(=O)NCC(=O)N1CCC[C@H]1C(=O)N[C@@H](CO)C(=O)N[C@@H](CO)C(=O)NCC(=O)N[C@@H](CCC(=O)O)C(=O)N1CCC[C@H]1C(=O)N1CCC[C@H]1C(=O)N1CCC[C@H]1C(=O)N[C@@H](CO)C(N)=O [Example 432] | – | – | 41.7 | – | 384 | – | – | 1.6 | 0.431 | 0.0297 | –
H-Y[Aib]QGT[αMePhe(2-F)]TSD[4Pal]SILLDKK([γGlu-γGlu-C18 diacid])AQ[Aib]AFIEYLTEGGPSSGAPPPSGTE-NH2 [Example 554] | – | – | – | – | 946 | – | – | 6.83 | 0.423 | 0.0323 | 4.08
Y[Aib]QGTFTSD[4Pal]SQ[αMeL]LD[Orn]K([dE-γGlu-C18 diacid])AQ[αMe4Pal]AFIE[αMeY]LLEGGPSSGAPPPSGSEE-NH2 [Example 1058] | 5.8 | 4.48 | – | 0.139 | 1450 | – | – | – | – | – | 45.6
